Measurements: the NIST ThermoML archive (doi:10.1021/acs.jced.7b01128)
Several values for one entry are separate records, joined by “and”; a condition that tells them apart may be missing. Identical values can stand only once. ± gives the expanded uncertainty stated by the source.

Key:
[1] = Liquid, Ebulliometric method (Recirculating still)
[2] = refractive index (Na D-line) (dimensionless); conditions: 101.33 kPa, Liquid, Standard Abbe refractometry

CC(C)CCO [3-methylbutan-1-ol]
Conditions | refractive index, 298.15 K | vapor or sublimation pressure, 343.15 K [kPa] | vapor or sublimation pressure, 386.05 K [kPa] | vapor or sublimation pressure, 392.15 K [kPa] | vapor or sublimation pressure, 397.15 K [kPa] | vapor or sublimation pressure, 403.95 K [kPa]
[1] | – | 7.73 ± 0.34 | 53.33 ± 0.51 | 66.66 ± 0.55 | 79.99 ± 0.64 | 101.05 ± 0.67
[2] | 1.403 ± 0.004 | – | – | – | – | –

CCCCO [butan-1-ol]
Conditions | refractive index, 298.15 K | vapor or sublimation pressure, 353.15 K [kPa] | vapor or sublimation pressure, 363.15 K [kPa] | vapor or sublimation pressure, 366.75 K [kPa] | vapor or sublimation pressure, 373.15 K [kPa] | vapor or sublimation pressure, 379.55 K [kPa] | vapor or sublimation pressure, 383.15 K [kPa] | vapor or sublimation pressure, 384.35 K [kPa] | vapor or sublimation pressure, 390.75 K [kPa]
[1] | – | 21.73 ± 0.36 | 34.13 ± 0.38 | 39.99 ± 0.45 | 51.86 ± 0.49 | 66.66 ± 0.56 | 76.52 ± 0.61 | 79.99 ± 0.64 | 100.78 ± 0.7
[2] | 1.397 ± 0.004 | – | – | – | – | – | – | – | –

C1COCCN1 [tetrahydro-1,4-oxazine]
Conditions | refractive index | vapor or sublimation pressure
[1], 343.15 K | – | 13.06 ± 0.3 kPa
[1], 353.15 K | – | 19.73 ± 0.31 kPa
[1], 363.15 K | – | 28.93 ± 0.34 kPa
[1], 372.15 K | – | 39.99 ± 0.38 kPa
[1], 373.15 K | – | 41.32 ± 0.38 kPa
[1], 380.75 K | – | 53.33 ± 0.42 kPa
[1], 383.15 K | – | 57.86 ± 0.48 kPa
[1], 387.55 K | – | 66.66 ± 0.51 kPa
[1], 393.35 K | – | 79.99 ± 0.57 kPa
[1], 393.45 K | – | 79.99 ± 0.57 kPa
[1], 401.15 K | – | 101.05 ± 0.61 kPa and 100.78 ± 0.61 kPa
[2], 293.15 K | 1.455 ± 0.004 | –
